Legend:
[1] = tested on: epithelium covering the granulation tissue; experiment: Histopathology and epithelial thickness of wounded region 20 days after wounding; type: in vivo, rat
Method: On day 20 following creation of the wound, some rats were euthanized and the original wound areas as well as tissue peripheral to the wound that encompassed the 20 mm diameter circle were excised and fixed in 10% neutral buffered formalin. Tissues were processed for paraffin embedding; sections were stained with hematoxylin and eosin. The thickness of the epithelium covering the granulation tissue was measured with an ocular micrometer. Five measures/section from 7-8 wounds/treatment group were evaluated at 250× magnification.

human and animal cells = human and animal cells (Cheng 2009); cited from earlier work
[2] = tested on: full-thickness cutaneous wounds; experiment: Closure of 6 mm full-thickness cutaneous wounds (residual wound area, contraction, re-epithelialization); type: in vivo, rat; settings: Normal rats, 10^−5 M NTX in MCN; for reduction of wound area relative to MCN+vehicle: within 3 days
Method: In a second set of experiments, Normal (n=70) and DB (n=70) Sprague-Dawley rats, 12-14 weeks of age and 8 weeks after injection of STZ, were subjected to wounding. Eight rats/treatment regimen were evaluated over the course of 3 independent experiments. The dorsum of the rat was shaved, and areas (20 mm in diameter) outlined with a marker in order to consistently position the wounds. Animals were anesthetized by i.p. injection of ketamine (60 mg/kg), xylazine (10 mg/kg), and acepromazine (1 mg/kg), and a 6 mm full-thickness circular excisional skin wound was made in the center of the demarked area to the level of the panniculus muscle using an Acupunch (Acuderm Inc., Fort Lauderdale, Fla.). Three wounds per rat were standardized such that the first wound was made 5 cm posterior to the occipital notch at the posterior of the animal's cranium and 1 cm off the midline. The second wound was created 7 cm posterior to the occipital notch at the posterior of the animal's cranium and 1 cm off the midline on the opposite side from the first wound. The third wound was placed 9 cm posterior to the occipital notch at the base of the animal's cranium and 1 cm off the midline on the same side as the first wound. To minimize the effects of diurnal rhythm, surgery was performed between 0800-0900 h. All wounds were left uncovered.
Topical administration of ˜0.1 ml of the carrier containing NTX or vehicle, using the dosage and carriers selected from the first experiment, was initiated immediately after wounding (0800 h for those rats receiving agents only once per day, and at 0800, 1200, and 1600 h for those animals receiving 3 applications daily); control rats received the carrier with vehicle either once or three times daily. Some animals in the Normal and DB groups were wounded but untreated.
Wound size was monitored by capturing images with a digital camera mounted on a tripod set 20 cm from the surface; a ruler was photographed with each wound. Animals were manually restrained without anesthesia for photography. Photographs were taken immediately after surgery and on days 3, 5, 7, 9, and 11. The area of each wound was analyzed using Image ProPlus 6.2 (Media Cybernetics, Inc., Bethesda, Md.). The percent residual wound was calculated at each time point for every rat. At 8 days, wound closure also was quantified according to Pietramaggiori and colleagues (Pietramaggiori et al., J Surg Res 160:169-177 (2010)) by measuring contraction, re-epithelialization, and open wound as a percentage of the original wound area. The sum of contracted, re-epithelialized, and open wound area was defined as equaling 100% of the original wound size (Yannas I., Tissue and Organ Regeneration in Adults. New York: Springer, 2001).

[3] = tested on: basal cells of the cutaneous epithelium; experiment: DNA synthesis (BrdU labeling index) in stratum basale of unwounded dorsal skin; type: in vivo; settings: for increase of BrdU incorporation relative to labeling index of DB animals: DB (T1D) rats
Method: Male Sprague-Dawley rats (˜150 g) were purchased from Charles River Laboratories (Wilmington, Mass.), and housed under standard laboratory conditions; water and food were available ad libitum. All investigations conformed to the guidelines of The Pennsylvania State University College of Medicine Institutional Animal Care and Use Committee.
Type 1 diabetes (T1D) was induced by intraperitoneal (i.p.) injections of 40 mg/kg streptozotocin (STZ, Sigma, St. Louis, Mo.), on two consecutive days (Klocek et al., Journal of Ocular Pharmacology and Therapeutics, 23:89-102 (2007); Havel et al., Diabetes, 49:244-252 (2000)). This regimen produced insulin-dependent diabetes in 100% of the animals within 72-96 h; rats with blood glucose levels measuring >350 mg/dl were considered diabetic (DB). Blood glucose levels were monitored from the tail vein using a True Track® Smart System glucometer (Home Diagnostics, Ft. Lauderdale, Fla.) before receiving STZ, and at 1, 4, and 8 weeks following induction of hyperglycemia. Control animals receiving an injection of an equivalent volume of sterile saline were termed “normal”. All rats were weighed weekly.
Normal (n=24) and diabetic (DB) rats (n=24) were randomized 8 weeks after injections of STZ or saline, and received NTX (Sigma-Aldrich, Indianapolis, Ind.) systemically (30 mg/kg, i.p. or subcutaneous (s.c.) at 0800 h) or topically 3 times daily at 0700, 1200, and 1700 h. For topical applications, NTX was dissolved in Sorenson's phosphate buffer (SPB), KY jelly (KYJ) (K-Y, Personal Products Company, McNeil-PPC, Inc., Skillman, N.J.), Neutrogena moisturizing cream (MCN) (Neutrogena Corporation, Los Angeles, Calif.), or DMSO (VWR, Philadelphia, Pa.). NTX was dissolved in sterile water at dosages of 10^−4 M, 10^−5 M or 10^−6 M, and thoroughly mixed into each of the carriers (1:1, v/v); 0.5 ml of saline mixed into corresponding carriers served as the respective vehicle control.
On the day preceding NTX or vehicle treatment, an 8×8 cm area was shaved on the dorsal surface of each rat and 4 circles (approximately 20 mm in diameter) were made with a permanent marker to denote locations of subsequent topical applications and/or skin collection. Using an applicator stick, one ml of carrier containing NTX or vehicle was placed within the demarked areas. Applications of NTX formulations were randomized to different positions. Each animal received NTX in 3 different concentrations, as well as the vehicle, in the same carrier; some rats received only saline in a carrier or were untreated.
To assess cells undergoing DNA synthesis, rats were injected i.p. with 100 mg/kg BrdU (Sigma-Aldrich) 3 and 6 h before euthanasia with Euthasol (Virbac, Fort Worth, Tex.). Appropriate regions of the skin were removed, fixed in 10% buffered formalin, and paraffin sections (6 μm) were stained with anti-BrdU-POD (Invitrogen, Carlsbad, Calif.). BrdU stained cells in the basal layer of the epithelium were counted in four 0.1 mm grids at 250× magnification using 2 sections/specimen; 3 tissue specimens were analyzed for each dosage of NTX in each carrier.

[4] = literature reports (Stinchcomb 2002; Krishman 2010); cited from earlier work
[5] = tested on: full-thickness cutaneous wound; experiment: Healing of 5-mm full-thickness cutaneous wound in Type 2 diabetic (db/db) mice; type: in vivo; settings: 10^−5 M NTX in moisturizing cream 3 times daily, by days 6, 13, and 15, p<0.05
From the text: To study the effects of opioid receptor antagonists on wound healing in a Type 2 diabetic and general obesity model, wound healing was compared between wild type and Lepr^db (also referred to as db/db) mutant mice. Mice homozygous for the diabetes spontaneous mutation (Lepr^db) become identifiably obese around 3 to 4 weeks of age. Plasma insulin levels become elevated beginning at 10 to 14 days and blood sugar levels become elevated beginning at four to eight weeks. These mice show delayed wound healing compared to wild type mice.
Mice were purchased from Jackson Laboratories and housed under standard laboratory care. Body weights and blood glucose levels of 8-week old Type 2 diabetic (db/db) mice and wild type C57Bl/6 mice were obtained (FIG. 9). Tail vein blood was obtained and glucose levels were measured by a TrueTrak glucometer. Values represent means±SEM; n=6-10 mice/treatment group.
To study wound healing, a 5-mm circular full-thickness cutaneous wound was created on the dorsum of db/db and wild type mice. Db/db mice were treated with either 10^−5 M Naltrexone (NTX) in moisturizing cream (vehicle), or vehicle alone; wild type mice received vehicle only. Applications were made 3 times daily for 15 days.

With `O=C1CC[C@@]2(O)[C@H]3Cc4ccc(O)c5c4[C@@]2(CCN3CC2CC2)[C@H]1O5` [NTX, 17-(cyclopropylmethyl)-4,5α-epoxy-3,14-dihydroxymorphinan-6-one] the “thickness of the epithelium relative to Normal animals receiving vehicle (24.6±1.6 μm)” value ([1]; DB rats subjected to NTX, day 20 (DB vehicle had a 44% reduction)) was “did not differ”, the “general structure of the epithelium (e.g., absence of necrotic cells)” value ([1]; Normal and DB rats receiving vehicle or NTX, 20 days following surgery) was “appeared to be similar” and the “thickness of the epithelium relative to Normal animals receiving vehicle (24.6±1.6 μm)” value ([1]; Normal rats treated with NTX, day 20) was “did not differ”. The entry into cells (human and animal cells) was “rapidly by passive diffusion”, the “reduction of wound size relative to MCN+vehicle” value ([2]; one time daily, days 3, 5, 7, and 9) was 31-82% and the “reduction of wound area relative to MCN+vehicle” value ([2]; single daily regimen) was 30%. The “reduction of wound size relative to MCN+vehicle” value ([2]; three times daily, days 3, 5, 7, and 9 (day 9 not significant)) was 11-23%, the “reduction of wound area relative to MCN+vehicle” value ([2]; three times daily) was 11% and the “increase of BrdU incorporation relative to labeling index of DB animals” value ([3]; systemic 30 mg/kg NTX i.p.) was 181%. For the same molecule, the “increase of BrdU incorporation relative to labeling index of DB animals” value ([3]; systemic 30 mg/kg NTX s.c.) was 59%, the “effect on BrdU incorporation” value ([3]; DB rats, topical NTX 10^−4 and 10^−5 M in SPB) was “no effect” and the “elevation of labeling index from baseline levels” value ([3]; DB rats, topical NTX at all 3 dosages in KYJ) was 103-147%. For the same molecule, the “elevation of labeling index from baseline levels” value ([3]; DB rats, topical NTX at all 3 dosages in MCN) was 85-89%, the “efficacy on BrdU labeling” value ([3]; DB rats, topical NTX combined with DMSO, only at 10^−4 and 10^−5 M) was “efficacious” and the “elevation of BrdU labeling relative to labeling index of Normal rats” value ([3]; Normal rats, systemic 30 mg/kg NTX i.p.) was 172%. The “elevation of BrdU labeling relative to labeling index of Normal rats” value ([3]; Normal rats, systemic 30 mg/kg NTX s.c.) was 51%, the “elevation of DNA synthesis from baseline levels” value ([3]; Normal rats, topical NTX 10^−4 M to 10^−6 M in any of the 4 carriers (SPB, DMSO, KYJ, MCN)) was 43-132% and the “increase in BrdU incorporation in the skin compared to baseline” value ([3]; Normal rats, topical NTX in SPB) was 43-56%. For the same molecule, the “change of BrdU incorporation from baseline” value ([3]; Normal rats, topical NTX, different dosages, in MCN) was 73-132%, the “toxicity of the effects on cell proliferation” value ([3]; T1D and normal rats, systemic or topical) was “not toxic” and the “penetration of the skin” value [4] was “poor penetrator of the skin”. For the same molecule, the “wound healing (percent residual defect) relative to db/db mice treated with vehicle only” value [5] was “significant improvement in would healing”.

Reference: US20180055838A1, “METHODS AND COMPOSITIONS FOR TREATMENT OF DERMAL AND EPIDERMAL WOUNDS” (THE PENN STATE RESEARCH FOUNDATION, priority 2011, published 2018)
